Test results as given in PubChem BioAssay AID330 (DTP/NCI, 2004).
“And” between values parts separate entries of the source, which are not always exact repeats. Equal entries are not always repeated. Inconclusive results and toxic doses are left out. The calls were made as follows: active = survival T/C of 150% or more; inactive = T/C below 125% in these data.

Tested on: P388 leukemia ip, CD2F1 mice, survival T/C
Assay: NCI In Vivo Anticancer Drug Screen. Data for tumor model P388 Leukemia (intraperitoneal) in CD2F1 (CDF1) mice
Conditions: endpoint: median survival time, higher = longer survival
How it was run: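 Mice carrying the transplanted tumor received test compound or vehicle. Survival was recorded in each group, and the value is the treated-group measurement divided by that of the vehicle-treated control group.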

[1] = dose: 15.0 mg/kg/injection, schedule: Q01DX005 (ip), vehicle: saline with Tween-80
[2] = dose: 30.0 mg/kg/injection, schedule: Q01DX005 (ip), vehicle: saline with Tween-80
[3] = dose: 60.0 mg/kg/injection, schedule: Q01DX005 (ip), vehicle: saline with Tween-80
[4] = dose: 50.0 mg/kg/injection, schedule: Q01DX005 (ip), vehicle: saline with Tween-80
[5] = dose: 100.0 mg/kg/injection, schedule: Q01DX005 (ip), vehicle: saline with Tween-80
[6] = dose: 200.0 mg/kg/injection, schedule: Q01DX005 (ip), vehicle: saline with Tween-80
[7] = dose: 25.0 mg/kg/injection, schedule: Q01DX009 (ip), vehicle: saline with Tween-80
[8] = dose: 100.0 mg/kg/injection, schedule: Q01DX009 (ip), vehicle: saline with Tween-80
[9] = dose: 200.0 mg/kg/injection, schedule: Q01DX009 (ip), vehicle: saline with Tween-80
[10] = dose: 120.0 mg/kg/injection, schedule: Q01DX005 (ip), vehicle: saline with Tween-80
[11] = dose: 50.0 mg/kg/injection, schedule: Q01DX005 (ip), vehicle: Klucel (hydroxypropylcellulose) (HPC)
[12] = dose: 100.0 mg/kg/injection, schedule: Q01DX005 (ip), vehicle: Klucel (hydroxypropylcellulose) (HPC)
[13] = dose: 200.0 mg/kg/injection, schedule: Q01DX005 (ip), vehicle: Klucel (hydroxypropylcellulose) (HPC)
[14] = dose: 50.0 mg/kg/injection, schedule: Q01DX009 (ip), vehicle: saline with Tween-80
[15] = dose: 100.0 mg/kg/injection, schedule: Q04DX003 (ip), vehicle: saline with Tween-80

Measured: T/C

COc1cccc2c1cc([N+](=O)[O-])c1c(C(=O)O)cc3c(c12)OCO3
inactive: dose: 2.5 mg/kg/injection, schedule: Q01DX009 (ip), vehicle: Klucel (hydroxypropylcellulose) (HPC) 118 % of control | dose: 2.5 mg/kg/injection, schedule: Q01DX009 (ip), vehicle: saline 108 % of control | dose: 5.0 mg/kg/injection, schedule: Q01DX009 (ip), vehicle: Klucel (hydroxypropylcellulose) (HPC) 118 % of control | dose: 5.0 mg/kg/injection, schedule: Q01DX009 (ip), vehicle: saline 117 % of control | dose: 10.0 mg/kg/injection, schedule: Q01DX009 (ip), vehicle: saline 117 % of control

Cn1c(=O)c2c(ncn2CCNC(c2ccccc2)c2cccc(Cl)c2)n(C)c1=O (stereo not drawn)
inactive: dose: 6.25 mg/kg/injection, schedule: Q01DX005 (ip), vehicle: alkali diluted with saline 101 % of control | dose: 12.5 mg/kg/injection, schedule: Q01DX005 (ip), vehicle: alkali diluted with saline 94 % of control | dose: 25.0 mg/kg/injection, schedule: Q01DX005 (ip), vehicle: alkali diluted with saline 97 % of control

COc1ccc2c(c1)OC(C)(C)C(c1ccccc1)=C2c1ccc2c(c1)NCCO2
inactive: [1] 99 % of control | [2] 91 % of control | [3] 91 % of control

O=S(=O)(Nc1ccc2ccc(NS(=O)(=O)N3CCCCC3)cc2c1)N1CCCCC1
inactive: [4] 104 % of control | [5] 95 % of control | [6] 100 % of control

NC(=S)Oc1ccccc1
inactive: dose: 6.25 mg/kg/injection, schedule: Q01DX009 (ip), vehicle: saline with Tween-80 103 % of control | dose: 12.5 mg/kg/injection, schedule: Q01DX009 (ip), vehicle: saline with Tween-80 100 % of control | [7] 106 % of control | [8] 93 % of control | [9] 93 % of control

COc1cccc(-c2nc(SC)nc(Cl)c2C#N)c1
inactive: [1] 96 % of control | [2] 86 % of control | [3] 108 % of control and 93 % of control | [10] 113 % of control

COc1ccc(N2C(=O)C(N=Nc3ccc(S(=O)(=O)Nc4ncccn4)cc3)C(=O)N(c3ccccc3)C2=S)cc1 (stereo not drawn)
inactive: dose: 50.0 mg/kg/injection, schedule: Q01DX005 (ip), vehicle: saline 103 % of control | dose: 100.0 mg/kg/injection, schedule: Q01DX005 (ip), vehicle: saline 95 % of control | dose: 200.0 mg/kg/injection, schedule: Q01DX005 (ip), vehicle: saline 98 % of control

Clc1ccc(SSN2CCOCC2)cc1
inactive: dose: 3.12 mg/kg/injection, schedule: Q01DX009 (ip), vehicle: saline 100 % of control | dose: 6.25 mg/kg/injection, schedule: Q01DX009 (ip), vehicle: saline 109 % of control | dose: 12.5 mg/kg/injection, schedule: Q01DX009 (ip), vehicle: saline 102 % of control

O=C(O)CCCC(O)(O)C(=O)O
inactive: [11] 108 % of control | [12] 94 % of control | [13] 96 % of control

O=c1[nH]ccc2occc12
inactive: [7] 100 % of control | [14] 100 % of control | [8] 109 % of control

Cc1ccc(C2=C/C(=C/c3ccc(N(CCC#N)CCC#N)cc3)C(=O)O2)cc1C
inactive: dose: 100.0 mg/kg/injection, schedule: Q01DX001 (ip), vehicle: saline with Tween-80 94 % of control | dose: 200.0 mg/kg/injection, schedule: Q01DX001 (ip), vehicle: saline with Tween-80 90 % of control | dose: 400.0 mg/kg/injection, schedule: Q01DX001 (ip), vehicle: saline with Tween-80 97 % of control

CC1(C)CCO/C(=C\C(=O)N2Cc3cc4ccccc4nc3C2)N1
inactive: dose: 18.75 mg/kg/injection, schedule: Q01DX001 (ip), vehicle: saline sonified 95 % of control | dose: 37.5 mg/kg/injection, schedule: Q01DX001 (ip), vehicle: saline sonified 95 % of control | dose: 75.0 mg/kg/injection, schedule: Q01DX001 (ip), vehicle: saline sonified 100 % of control

CCCCCCC1(/C=C/c2ccc(Cl)cc2Cl)OCC(C)(C)CO1
inactive: dose: 50.0 mg/kg/injection, schedule: Q01DX009 (ip), vehicle: saline + alcohol 102 % of control | dose: 100.0 mg/kg/injection, schedule: Q01DX009 (ip), vehicle: saline + alcohol 102 % of control | dose: 200.0 mg/kg/injection, schedule: Q01DX009 (ip), vehicle: saline + alcohol 102 % of control

CN(C)c1ccc([N+]([O-])=NC#N)cc1
inactive: dose: 25.0 mg/kg/injection, schedule: Q04DX003 (ip), vehicle: saline with Tween-80 93 % of control | dose: 50.0 mg/kg/injection, schedule: Q04DX003 (ip), vehicle: saline with Tween-80 95 % of control | [15] 92 % of control

Clc1nc(C(Cl)Cl)nc2ccccc12
inactive: [2] 106 % of control | [3] 110 % of control and 111 % of control | [10] 111 % of control and 113 % of control

COc1ccc(C(C)c2cc3c(cc2OC(C)O)OCO3)cc1 (stereo not drawn)
inactive: [3] 92 % of control | [10] 94 % of control | dose: 240.0 mg/kg/injection, schedule: Q01DX005 (ip), vehicle: saline with Tween-80 97 % of control

Nc1cc(C(=O)Nc2ccc(C3=NCCN3)cc2)cc(C(=O)Nc2ccc(C3=NCCN3)cc2)c1
active: dose: 32.0 mg/kg/injection, schedule: Q01DX010 (ip), vehicle: saline 168 % of control

CCO/C(=N/S(C)(=O)=O)NO
inactive: [11] 102 % of control | [12] 106 % of control | [13] 102 % of control

CC(=O)OC1OC(/C=N\N(C)C)C(OCc2ccccc2)C(OCc2ccccc2)C1OC(C)=O (stereo not drawn)
inactive: dose: 3.12 mg/kg/injection, schedule: Q01DX005 (ip), vehicle: Klucel (hydroxypropylcellulose) (HPC) 95 % of control | dose: 6.25 mg/kg/injection, schedule: Q01DX005 (ip), vehicle: Klucel (hydroxypropylcellulose) (HPC) 97 % of control | dose: 6.25 mg/kg/injection, schedule: Q01DX009 (ip), vehicle: Klucel (hydroxypropylcellulose) (HPC) 104 % of control | dose: 12.5 mg/kg/injection, schedule: Q01DX005 (ip), vehicle: Klucel (hydroxypropylcellulose) (HPC) 94 % of control | dose: 12.5 mg/kg/injection, schedule: Q01DX009 (ip), vehicle: Klucel (hydroxypropylcellulose) (HPC) 92 % of control | dose: 25.0 mg/kg/injection, schedule: Q01DX009 (ip), vehicle: Klucel (hydroxypropylcellulose) (HPC) 92 % of control | dose: 25.0 mg/kg/injection, schedule: Q01DX009 (ip), vehicle: other 92 % of control | dose: 50.0 mg/kg/injection, schedule: Q01DX009 (ip), vehicle: other 88 % of control | dose: 100.0 mg/kg/injection, schedule: Q01DX009 (ip), vehicle: other 94 % of control | dose: 200.0 mg/kg/injection, schedule: Q01DX009 (ip), vehicle: other 89 % of control

COC(=O)C1(C(=O)O)ON1C(C)(C)C (stereo not drawn)
inactive: [11] 100 % of control | [12] 100 % of control | [13] 99 % of control

CCOC(=O)C1=C(C)NC(C)=C(C(=O)OCC)C1c1ccc(Cl)cc1
inactive: [14] 88 % of control | [8] 94 % of control | [9] 95 % of control | dose: 400.0 mg/kg/injection, schedule: Q01DX009 (ip), vehicle: saline with Tween-80 93 % of control

CC(C)CNc1ncnc2n[nH]nc12
inactive: [4] 100 % of control | [5] 103 % of control | [6] 100 % of control

O=S(=O)(Nc1nccs1)c1ccc(NCc2c3ccccc3nc3ccccc23)cc1
inactive: dose: 100.0 mg/kg/injection, schedule: Q04DX002 (ip), vehicle: Klucel (hydroxypropylcellulose) (HPC) 101 % of control | dose: 200.0 mg/kg/injection, schedule: Q04DX002 (ip), vehicle: Klucel (hydroxypropylcellulose) (HPC) 100 % of control | dose: 400.0 mg/kg/injection, schedule: Q04DX002 (ip), vehicle: Klucel (hydroxypropylcellulose) (HPC) 105 % of control

OC(CCl)Cn1nnc2c3ccccc3ccc21 (stereo not drawn)
inactive: dose: 25.0 mg/kg/injection, schedule: Q01DX005 (ip), vehicle: saline with Tween-80 101 % of control | [4] 101 % of control | [5] 101 % of control | [15] 99 % of control | dose: 200.0 mg/kg/injection, schedule: Q04DX003 (ip), vehicle: saline with Tween-80 94 % of control

O=S(=O)(OC(F)(F)F)C(F)(F)F
inactive: dose: 24.5 mg/kg/injection, schedule: Q01DX001 (ip), vehicle: Klucel (hydroxypropylcellulose) (HPC) 97 % of control | dose: 49.0 mg/kg/injection, schedule: Q01DX001 (ip), vehicle: Klucel (hydroxypropylcellulose) (HPC) 94 % of control | dose: 98.0 mg/kg/injection, schedule: Q01DX001 (ip), vehicle: Klucel (hydroxypropylcellulose) (HPC) 94 % of control
